Results as given in patent US6719969B1, “Treatment of liver disease and injury with CXC chemokines” (The Regents of The University of Michigan, priority 1999, dated 2004).

Key:
[1] = system: CD1 and BALB/c mice; assay: Acetaminophen lethality, pilot studies in CD1 and BALB/c mice; type: in vivo, mouse; details: 400 mg/kg i.p., 12 h fast
Description: Protocol 2: In the second series of studies, CD1, CXCR2ko and CXCR2wt mice were allowed free access to water for 12 h prior to an i.p. injection of 400 mg/kg acetaminophen. All acetaminophen challenged mice were fasted in this manner because previous studies have shown that fasting promotes hepatic susceptibility to acetaminophen toxicity by decreasing the inactivation of chemically reactive metabolites […], allowing these metabolites to bind hepatocyte proteins and cause cell damage (Whitcomb and Block, 1994; Pessayre et al., 1979; each incorporated herein by reference). […] Two hours prior to acetaminophen challenge, CD1 mice (n=1 0/group) were injected with 0.5 ml of normal rabbit serum or anti-mouse MIP-2 antiserum, and mouse survival was monitored for the subsequent 4 days. CXCR2ko and CXCR2wt mice (n=5/group) were injected i.p. with the same dose of acetaminophen, and mouse survival was monitored for 4 days.

[2] = system: CBA/J mice; assay: Acetaminophen dose response in CBA/J mice; type: in vivo, mouse; details: 8 h fast
Description: (§1) Six wk old female CBA/J mice (Jackson Laboratory, Bar Harbor, Me.) were fasted, but with free access to water, for 8 h prior to intraperitoneal (I.P.) injection of acetaminophen (Sigma) at 200 or 300 mg/kg, dissolved in normal saline. After injection, the animals were allowed free access to food. Mice were euthanized and liver was taken from the mice at various time points after acetaminophen injection into the mice.
To determine the level of acetaminophen that was necessary to induce liver damage, a dose response was performed. In these studies, normal CBA/J mice were fasted for 8 h and subsequently given an intraperitoneal injection of acetaminophen dissolved in PBS or PBS alone for control. Mouse survival was followed for 4 days when the study was terminated. 20 mice/group were used in 2 separate studies.

[3] = system: CBA/J mice treated with acetaminophen; assay: Exogenous SCF at lethal acetaminophen dose; type: in vivo, mouse
Description: as §1
Hepatic damage was measured using an AXIO-HOME microscope by 2 independent investigators. Sections of liver tissue (2 from each animal) were stained with hematoxylin and eosin and the area of hepatic damage was outlined and expressed as a % of total liver area examined.
In order to finally determine whether SCF has a role in protecting the animals from acetaminophen toxicity, 1 μg of recombinant murine SCF or saline was injected i.v. at the time of or within 30 min. of acetaminophen challenge. The survival of animals was recorded for 4 days and the study was terminated. % Survival data was collected from 2 separate studies with a total of 20 mice in each treatment group.

[4] = system: hepatocytes

CC(=O)Nc1ccc(O)cc1 [acetaminophen]
Lethality [1]: approximately 10%
Lethality ([2]; 200 mg/kg i.p.): no lethality
Lethality ([2]; 300 mg/kg i.p., by 48 h): ~100%

B1: SCF: recombinant murine stem cell factor (protein)
chain: KEICGNPVTDNVKDITKLVANLPNDYMITLNYVAGMDVLPSHCWLRDMVIQLSLSLTTLLDKFSNISEGLSNYSIIDKLGKIVDDLVLCMEENAPKNIKESPKRPETRSFTPEEFFSIFNRSIDAFKDFMVASDTSDCVLSSTLGPEKDSRVSVTKPFMLPPVA
Survival ([3]; 1 ug i.v. at or within 30 min of lethal acetaminophen dose, 4 days): 90%
Liver histology ([3]; 300 mg/kg acetaminophen, 1 ug SCF): no necrotic areas
Hepatocyte proliferation in vitro [4]: can directly induce hepatocyte proliferation in vitro
